Test results reported in patent US20260356957A1, “METHODS FOR TREATMENT OF NON-SMALL CELL LUNG CANCER (NSCLC)” (Janssen Biotech, Inc., priority 2023, published 2026).

Test system: EGFR-mutated locally advanced or metastatic NSCLC
Assay: MARIPOSA Phase 3, time to subsequent therapy (TTST) and subsequent therapy
Type: in vivo, human

C=CC(=O)Nc1cc(Nc2nccc(-c3cn(C)c4ccccc34)n2)c(OC)cc1N(C)CCN(C)C [Osimertinib] was tested, and the “Censored (TTST)” value (Full Analysis Set) was 232 (54.1%) (%), the “Event (TTST)” value (Full Analysis Set) was 197 (45.9%) (%) and the “TTST 6-month event-free rate (95% CI)” value (Full Analysis Set) was 0.91 (0.88, 0.93). For the same compound, the “TTST 12-month event-free rate (95% CI)” value (Full Analysis Set) was 0.77 (0.73, 0.81), the “TTST 18-month event-free rate (95% CI)” value (Full Analysis Set) was 0.63 (0.58, 0.67) and the “TTST Median (95% CI)” value (Full Analysis Set) was 24.08 (22.01, 28.98) months. The “TTST time to event, 25th percentile (95% CI)” value (Full Analysis Set) was 13.11 (10.58, 14.36) months and the “TTST time to event, 75th percentile (95% CI)” value (NE = not estimable) was “NE (NE, NE)”.
